Carcinogen call data for eight molecules are collected here from PubChem BioAssay AID1259411 (Chemical Carcinogenesis Research Information System (CCRIS), 2018).

Calls of active or inactive are those of the source. How the calls were made is not given here.

This data set deals with rodent carcinogenicity bioassays, tumor incidence. As to the kind of experiment: CCRIS carcinogenicity studies. The method, boiled down:
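NCI-built, expert-reviewed records of carcinogenicity and related test outcomes (mutagenicity, tumor promotion/inhibition) compiled from published and report sources, historical span 1985-2011, not updated.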

As for `C=C(C)c1ccccc1`, the carcinogen call runs as follows: (Species: Mouse, Strain/Sex: B6C3F1/Female (50/group), Route: Inhalation, Dose: 0, 100, 300, 600 ppm for 6 hr/d, 5 d/wk, except holidays, for 105 wk, Dose: 0, 100, 300, 600 ppm for 6 hr/d, 5 d/wk, except holidays, for 105 wk, Tumor Site: Type of Lesion: Liver: hepatocelllular carcinoma (3/50, 9/50, 6/50, 18/50), hepatocellular adenoma and carcinoma combined (13/50, 26/50) “active; positive (ntp reports as clear evidence)”; (Species: Mouse, Strain/Sex: B6C3F1/Male (50/group), Route: Inhalation, Dose: 0, 100, 300, 600 ppm for 6 hr/d, 5 d/wk, except holidays, for 105 wk, Dose: 0, 100, 300, 600 ppm for 6 hr/d, 5 d/wk, except holidays, for 105 wk, Tumor Site: Type of Lesion: Liver: hepatocellular adenoma and carcinoma combined (28/50, 36/50, 33/50, 37/50 (considered equivocal))) “inactive; negative; p value not significant (ntp reports as equivocal evidence)”; (Species: Rat, Strain/Sex: F344/N / Female (50/group), Route: Inhalation, Dose: 0, 100, 300, 1000 ppm for 6 hr/d, 5 d/wk, except holidays, for 105 wk, Dose: 0, 100, 300, 1000 ppm for 6 hr/d, 5 d/wk, except holidays, for 105 wk) “inactive; negative”; (Species: Rat, Strain/Sex: F344/N / Male (50/group), Route: Inhalation, Dose: 0, 100, 300, 1000 ppm for 6 hr/d, 5 d/wk, except holidays, for 105 wk, Dose: 0, 100, 300, 1000 ppm for 6 hr/d, 5 d/wk, except holidays, for 105 wk, Tumor Site: Type of Lesion: Kidney: renal tubule adenoma and carcinoma combined (0/50, 0/50, 3/50, 7/50 (single and step sections)) Mononuclear cell) “active; positive (ntp reports as some evidence)”.
For the molecule `CN1COCN(Cc2cnc(Cl)s2)/C1=N/[N+](=O)[O-]`, the carcinogen call (Species: MOUSE, Strain/Sex: TIF:MAGF/MALE, Route: DIET, Dose: 0, 50, 200, 500, 1250, 2500, 5000 PPM IN DIET FOR UP TO 50 WKS (STUDY DURATION: 50 WKS), Dose: 0, 50, 200, 500, 1250, 2500, 5000 PPM IN DIET FOR UP TO 50 WKS (STUDY DURATION: 50 WKS)) is “inactive; negative for tumors but apoptosis and necrosis observed in liver at doses of 500”; the carcinogen call (Species: RAT, Strain/Sex: TIF:RAIF/FEMALE, Route: ORAL (DIET), Dose: 0, 1000, 3000 PPM FOR 1, 10, 20, 30, 40, OR 50 WKS, Dose: 0, 1000, 3000 PPM FOR 1, 10, 20, 30, 40, OR 50 WKS) was “inactive; negative”.
Consider `c1ccc2ccccc2c1`, for which the carcinogen call by setting is: (Species: MOUSE, Strain/Sex: B6C3F1/FEMALE, Route: INHALATION, Dose: 0, 10, 30 PPM 6 HR/D 5 D/WK FOR 104 WK (STUDY DURATION: 104 WK), Dose: 0, 10, 30 PPM 6 HR/D 5 D/WK FOR 104 WK (STUDY DURATION: 104 WK), Tumor Site: Type of Lesion: LUNG: ALVEOLAR/BRONCHIOLAR ADENOMA OR CARCINOMA) “active; positive”; (Species: MOUSE, Strain/Sex: B6C3F1/MALE, Route: INHALATION, Dose: 0, 10, 30 PPM 6 HR/D 5 D/WK FOR 104 WK (STUDY DURATION: 104 WK), Dose: 0, 10, 30 PPM 6 HR/D 5 D/WK FOR 104 WK (STUDY DURATION: 104 WK)) “inactive; negative”; (Species: MOUSE, Strain/Sex: CD-1/FEMALE, Route: INTRAPERITONEAL, Dose: 0, 0.25, 0.5, 1.0 UMOL IN DMSO TO NEWBORN MICE ON DAY 1, 8 AND 15 OF LIFE RESPECTIVELY (TOTAL DOSE: 1.75 UMOL) (STUDY DU, Dose: 0, 0.25, 0.5, 1.0 UMOL IN DMSO TO NEWBORN MICE ON DAY 1, 8 AND 15 OF LIFE RESPECTIVELY (TOTAL DOSE: 1.75 UMOL) (STUDY DU) “inactive; negative”; (Species: MOUSE, Strain/Sex: CD-1/MALE, Route: INTRAPERITONEAL, Dose: 0, 0.25, O.5, 1.0 UMOL IN DMSO TO NEWBORN MICE ON DAY 1,8 AND 15 OF LIFE RESPECTIVELY (TOTAL DOSE: 1.75 UMOL) (STUDY DUR, Dose: 0, 0.25, O.5, 1.0 UMOL IN DMSO TO NEWBORN MICE ON DAY 1,8 AND 15 OF LIFE RESPECTIVELY (TOTAL DOSE: 1.75 UMOL) (STUDY DUR) “inactive; negative”; (Species: RAT, Strain/Sex: F344/N/FEMALE, Route: INHALATION, Dose: 0, 10, 30, 60 PPM 6 HR/D 5 D/WK FOR 105 WK (STUDY DURATION: 105 WK), Dose: 0, 10, 30, 60 PPM 6 HR/D 5 D/WK FOR 105 WK (STUDY DURATION: 105 WK), Tumor Site: Type of Lesion: NOSE: NEUROBLASTOMA) “active; positive”; (Species: RAT, Strain/Sex: F344/N/MALE, Route: INHALATION, Dose: 0, 10, 30, 60 PPM 6 HR/D 5 D/WK FOR 105 WK (STUDY DURATION: 105 WK), Dose: 0, 10, 30, 60 PPM 6 HR/D 5 D/WK FOR 105 WK (STUDY DURATION: 105 WK), Tumor Site: Type of Lesion: NOSE: ADENOMA) “active; positive”.
For `O=C(NCC1CCCCN1)c1cc(OCC(F)(F)F)ccc1OCC(F)(F)F` (configuration not stated), the carcinogen call is “inactive; negative” (Species: MOUSE, Strain/Sex: CD-1/MALE,FEMALE, Route: ORAL, Dose: 15, 30, 60 MG/KG/DAY IN DIET FOR 18 MO, Dose: 15, 30, 60 MG/KG/DAY IN DIET FOR 18 MO) and “inactive; negative” (Species: RAT, Strain/Sex: WISTAR/MALE,FEMALE, Route: ORAL, Dose: 15, 30, 60 MG/KG/DAY IN DIET FOR 24 MO, Dose: 15, 30, 60 MG/KG/DAY IN DIET FOR 24 MO).
With `CO[Si](CCCOCC1CO1)(OC)OC` (configuration not stated), where the note is “Species: MOUSE, Strain/Sex: C3H/MALE, Route: DERMAL, Dose: 0, 5 MG IN ACETONE 3/WK FOR DURATION OF STUDY (STUDY DURATION: LIFETIME)”, the carcinogen call was “inactive; negative”.
On to `CCC(=O)CNCN=O`, for which the carcinogen call is “active; positive” (Species: HAMSTER, Strain/Sex: SYRIAN/FEMALE, Route: SUBCUTANEOUS, Dose: 4, 8, 16 MG/KG 1/WK FOR LIFE, Dose: 4, 8, 16 MG/KG 1/WK FOR LIFE, Tumor Site: Type of Lesion: NASAL CAVITY: ADENOCARCINOMA, PAPILLOMA, MUCOEPIDERMOID TUMOR, LARYNX OR PHARYNX: PAPILLARY POLYP, PAPILLOMA, ORAL CAVIT, Tumor Site: Type of Lesion: NASAL CAVITY: ADENOCARCINOMA, PAPILLOMA, MUCOEPIDERMOID TUMOR, LARYNX OR PHARYNX: PAPILLARY POLYP, PAPILLOMA, ORAL CAVIT) and “active; positive” (Species: HAMSTER, Strain/Sex: SYRIAN/MALE, Route: SUBCUTANEOUS, Dose: 2.3, 4.6, 9.2 MG/KG 1/WK FOR LIFE, Dose: 2.3, 4.6, 9.2 MG/KG 1/WK FOR LIFE, Tumor Site: Type of Lesion: NASAL CAVITY: ADENOCARCINOMA, PAPILLOMA, MUCOEPIDERMOID TUMOR, LARYNX OR PHARYNX: PAPILLARY POLYP, PAPILLOMA, ORAL CAVIT, Tumor Site: Type of Lesion: NASAL CAVITY: ADENOCARCINOMA, PAPILLOMA, MUCOEPIDERMOID TUMOR, LARYNX OR PHARYNX: PAPILLARY POLYP, PAPILLOMA, ORAL CAVIT).
On to `O=C1c2ccccc2C(=O)C1c1ccc2ccccc2n1`, for which the carcinogen call reads like this: (Species: RAT, Strain/Sex: F344/FEMALE, Route: ORAL, Dose: 0, 500, 1700, 5000 PPM IN DIET FOR 106 WK (STUDY DURATION: 111 WK), Dose: 0, 500, 1700, 5000 PPM IN DIET FOR 106 WK (STUDY DURATION: 111 WK), Tumor Site: Type of Lesion: LIVER: HEPATOCELLULAR ADENOMA OR CARCINOMA) “active; positive”; (Species: RAT, Strain/Sex: F344/MALE, Route: ORAL, Dose: 0, 500, 1700, 5000 PPM IN DIET FOR 105 WK (STUDY DURATION: 110 WK), Dose: 0, 500, 1700, 5000 PPM IN DIET FOR 105 WK (STUDY DURATION: 110 WK), Tumor Site: Type of Lesion: KIDNEY(RENAL TUBULE): ADENOMA OR CARCINOMA, LIVER: HEPATOCELLULAR ADENOMA, ORAL CAVITY: SQUAMOUS CELL PAPILLOMA, SQUAMOU, Tumor Site: Type of Lesion: KIDNEY(RENAL TUBULE): ADENOMA OR CARCINOMA, LIVER: HEPATOCELLULAR ADENOMA, ORAL CAVITY: SQUAMOUS CELL PAPILLOMA, SQUAMOU) “active; positive”.
`O=C1NS(=O)(=O)c2ccccc21`: the carcinogen call (Species: MONKEY, Strain/Sex: AFRICAN GREEN, RHESUS, CYNOMOLGUS, HYBRID/MALE, FEMALE, Route: ORAL, Dose: 0, 25 MG/KG BW IN FOOD 5 D/WK FOR DURATION OF STUDY (STUDY DURATION: 24 YR)) is “inactive; negative”; the carcinogen call (Species: RAT, Strain/Sex: ANALBUMINEMIC/MALE, Route: ORAL, Dose: 0, 5% IN DIET FOR 80 WK (STUDY DURATION: 80 WK)) is “inactive; negative”; the carcinogen call (Species: RAT, Strain/Sex: SPRAGUE-DAWLEY/MALE, Route: ORAL, Dose: 0, 5% IN DIET FOR 80 WK (STUDY DURATION: 80 WK)) was “inactive; negative”.
